Experimental findings from PubChem BioAssay AID1259411 (Chemical Carcinogenesis Research Information System (CCRIS), 2018) are described below.

Calls of active or inactive are those of the source. The rule behind the calls is not given here.

The data set has as its system rodent carcinogenicity bioassays, tumor incidence. Kind of data set: CCRIS carcinogenicity studies. In short, it runs like this: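 Archive of carcinogenicity, mutagenicity, tumor promotion and tumor inhibition results drawn from journals, NCI reports and other sources, expert-reviewed; covers 1985-2011 and is no longer updated.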

Turning to `Cc1c(N)nc([C@H](CC(N)=O)NC[C@H](N)C(N)=O)nc1C(=O)N[C@H](C(=O)N[C@H](C)[C@@H](O)[C@H](C)C(=O)N[C@H](C(=O)NCCc1nc(-c2nc(C(=O)NCCCN[C@@H](C)c3ccccc3)cs2)cs1)[C@@H](C)O)[C@@H](O[C@@H]1O[C@@H](CO)[C@@H](O)[C@H](O)[C@@H]1O[C@H]1O[C@H](CO)[C@@H](O)[C@H](OC(N)=O)[C@@H]1O)c1cnc[nH]1`, the carcinogen call is “active; positive” (Species: RAT, Strain/Sex: SPRAGUE-DAWLEY/FEMALE, Route: SUBCUTANEOUS, Dose: 0, 0.32, 0.63, 1.25, 2.50, 5.0 MG/KG IN SALINE 1/WK FOR 10 WK THEN 1/2 WK FOR 12 WK, 19 WK OR LIFETIME (STUDY DURATION:, Dose: 0, 0.32, 0.63, 1.25, 2.50, 5.0 MG/KG IN SALINE 1/WK FOR 10 WK THEN 1/2 WK FOR 12 WK, 19 WK OR LIFETIME (STUDY DURATION:, Tumor Site: Type of Lesion: KIDNEY: MALIGNANT OR BENIGN TUMOR, INJECTION SITE: MALIGNANT TUMOR) and “active; positive” (Species: RAT, Strain/Sex: SPRAGUE-DAWLEY/MALE, Route: SUBCUTANEOUS, Dose: 0, 0.32, 0.63, 1.25, 2.50, 5.0 MG/KG IN SALINE 1/WK FOR 10 WK THEN 1/2 WK FOR 12 WK, 19 WK OR LIFETIME (STUDY DURATION:, Dose: 0, 0.32, 0.63, 1.25, 2.50, 5.0 MG/KG IN SALINE 1/WK FOR 10 WK THEN 1/2 WK FOR 12 WK, 19 WK OR LIFETIME (STUDY DURATION:, Tumor Site: Type of Lesion: KIDNEY: MALIGNANT OR BENIGN TUMOR, INJECTION SITE: MALIGNANT TUMOR).

Turning to `O=S(=O)(O)NC1CCCCC1`, the carcinogen call is “inactive; negative” (Species: MONKEY, Strain/Sex: CYNOMOLGUS, RHESUS, AFRICAN GREEN/MALE, FEMALE, Route: ORAL, Dose: 0, 100, 500 MG/KG IN DIET FOR 24 YR (STUDY DURATION: 24 YR), Dose: 0, 100, 500 MG/KG IN DIET FOR 24 YR (STUDY DURATION: 24 YR)); “active; positive” (Species: RAT, Strain/Sex: ALBINO/MALE,FEMALE, Route: SUBCUTANEOUS, Dose: 5, 15% IN AQ SOLN 3/WK FOR 85 OR 107 WK, Tumor Site: Type of Lesion: INJECTION SITE: FIBROSARCOMA); “inactive; negative” (Species: RAT, Strain/Sex: SPRAGUE-DAWLEY/MALE,FEMALE, Route: ORAL, Dose: 2, 5% IN DIET PRENATALLY AND FOR LIFE).

For the compound `CN(C)/C=N/c1nnc(/C=C/c2ccc([N+](=O)[O-])o2)o1`, the carcinogen call (Species: RAT, Route: ORAL, Tumor Site: Type of Lesion: MAMMARY GLAND, INTESTINES) is “active; positive”.

Take `O=C1CCC(=O)O1`: the carcinogen call reads like this: (Species: MOUSE, Strain/Sex: B6C3F1/FEMALE, Route: GAVAGE, Dose: 0, 75, 150 MG/KG IN CORN OIL 5 D/WK FOR 103 WK (STUDY DURATION: 104 WK), Dose: 0, 75, 150 MG/KG IN CORN OIL 5 D/WK FOR 103 WK (STUDY DURATION: 104 WK)) “inactive; negative”; (Species: MOUSE, Strain/Sex: B6C3F1/MALE, Route: GAVAGE, Dose: 0, 38, 75 MG/KG IN CORN OIL 5 D/WK FOR 103 WK (STUDY DURATION: 104 WK), Dose: 0, 38, 75 MG/KG IN CORN OIL 5 D/WK FOR 103 WK (STUDY DURATION: 104 WK)) “inactive; negative”; (Species: RAT, Strain/Sex: F344/FEMALE, Route: GAVAGE, Dose: 0, 50, 100 MG/KG IN CORN OIL 5 D/WK FOR 103 WK (STUDY DURATION: 104 WK), Dose: 0, 50, 100 MG/KG IN CORN OIL 5 D/WK FOR 103 WK (STUDY DURATION: 104 WK)) “inactive; negative”; (Species: RAT, Strain/Sex: F344/MALE, Route: GAVAGE, Dose: 0, 50, 100 MG/KG IN CORN OIL 5 D/WK FOR 103 WK (STUDY DURATION: 104 WK), Dose: 0, 50, 100 MG/KG IN CORN OIL 5 D/WK FOR 103 WK (STUDY DURATION: 104 WK)) “inactive; negative”.

`CN=C(NCc1cnc(Cl)s1)N[N+](=O)[O-]`: the carcinogen call runs as follows: (Species: Rat, Strain/Sex: ???/Female (60/group), Route: Oral, Dose: 0, 150, 500, 1,500, 3,000 ppm in diet for 2 yr, Dose: 0, 150, 500, 1,500, 3,000 ppm in diet for 2 yr) “inactive; negative (study details not given in source; purity 95.2%)”; (Species: Rat, Strain/Sex: ???/Male (60/group), Route: Oral, Dose: 0, 150, 500, 1,500, 3,000 ppm in diet for 2 yr, Dose: 0, 150, 500, 1,500, 3,000 ppm in diet for 2 yr) “inactive; negative (study details not given in source; purity 95.2%)”.

With `O=NN1CCC(=O)CC1`, under “Species: RAT, Strain/Sex: F344/FEMALE, Route: ORAL, Dose: 0, 80 ML OF SOLUTION OF 115 MG/L IN NEUTRAL DEIONIZED DRINKING WATER 5 D/WK FOR 30 WK (STUDY DURATION: 60 WK), Tumor Site: Type of Lesion: NASAL CAVITY: ESTHESIONEUROEPITHELIOMA, FORESTOMACH: TUMOR, ESOPHAGUS: TUMOR, TONGUE: TUMOR, LIVER: HEPATOCELLULAR CARCI, Tumor Site: Type of Lesion: NASAL CAVITY: ESTHESIONEUROEPITHELIOMA, FORESTOMACH: TUMOR, ESOPHAGUS: TUMOR, TONGUE: TUMOR, LIVER: HEPATOCELLULAR CARCI”, the carcinogen call is “active; positive”.

For `c1ccc2c(c1)ccc1cc3ccc4c(c3cc12)CCCC4`, where the note is “Species: MOUSE, Strain/Sex: SWISS/FEMALE, Route: DERMAL, Dose: 0, 37 UG IN ACETONE (0.2%) 2/WK FOR 70 WK FOR A TOTAL DOSE OF 0, 5.2 MG (STUDY DURATION: 100 WK), Dose: 0, 37 UG IN ACETONE (0.2%) 2/WK FOR 70 WK FOR A TOTAL DOSE OF 0, 5.2 MG (STUDY DURATION: 100 WK), Tumor Site: Type of Lesion: SKIN: CARCINOMA, SKIN: PAPILLOMA”, the carcinogen call was “active; positive”.

`COc1cc(/C=C/C(=O)CC(=O)/C=C/c2ccc(O)c(OC)c2)ccc1O`: the carcinogen call (Species: MOUSE, Strain/Sex: B6C3F1/FEMALE, Route: ORAL, Dose: 0, 2000, 10000, 50000 PPM IN FEED FOR 104 WK (STUDY DURATION: 104 WK), Dose: 0, 2000, 10000, 50000 PPM IN FEED FOR 104 WK (STUDY DURATION: 104 WK), Tumor Site: Type of Lesion: LIVER: HEPATOCELLULAR ADENOMA, HEPATOCELLULAR ADENOMA OR CARCINOMA) is “equivocal”; the carcinogen call (Species: MOUSE, Strain/Sex: B6C3F1/MALE, Route: ORAL, Dose: 0, 2000, 10000, 50000 PPM IN FEED FOR 104 WK (STUDY DURATION: 104 WK), Dose: 0, 2000, 10000, 50000 PPM IN FEED FOR 104 WK (STUDY DURATION: 104 WK), Tumor Site: Type of Lesion: LIVER: HEPATOCELLULAR ADENOMA, HEPATOCELLULAR ADENOMA OR CARCINOMA, SMALL INTESTINE: CARCINOMA) is on record as “equivocal”; the carcinogen call (Species: RAT, Strain/Sex: F344/FEMALE, Route: ORAL, Dose: 0, 2000, 10000, 50000 PPM IN FEED FOR 104 WK (STUDY DURATION: 104 WK), Dose: 0, 2000, 10000, 50000 PPM IN FEED FOR 104 WK (STUDY DURATION: 104 WK), Tumor Site: Type of Lesion: CLITORAL GLAND: ADENOMA, ADENOMA OR CARCINOMA) is recorded as “equivocal”; the carcinogen call (Species: RAT, Strain/Sex: F344/MALE, Route: ORAL, Dose: 0, 2000, 10000, 50000 PPM IN FEED FOR 104 WK (STUDY DURATION: 104 WK), Dose: 0, 2000, 10000, 50000 PPM IN FEED FOR 104 WK (STUDY DURATION: 104 WK)) is “inactive; negative”.

In the case of `c1ccc2c(c1)Oc1ccccc1O2`, the carcinogen call reads like this: (Species: MOUSE, Strain/Sex: B6C3F1/FEMALE, Route: ORAL, Dose: 0, 5000, 10000 PPM IN DIET, Dose: 0, 5000, 10000 PPM IN DIET) “inactive; negative”; (Species: MOUSE, Strain/Sex: B6C3F1/MALE, Route: ORAL, Dose: 0, 5000, 10000 PPM IN DIET, Dose: 0, 5000, 10000 PPM IN DIET) “inactive; negative”; (Species: RAT, Strain/Sex: OSBORNE-MENDEL/FEMALE, Route: ORAL, Dose: 0, 5000, 10000 PPM IN DIET, Dose: 0, 5000, 10000 PPM IN DIET) “inactive; negative”; (Species: RAT, Strain/Sex: OSBORNE-MENDEL/MALE, Route: ORAL, Dose: 0, 5000, 10000 PPM IN DIET, Dose: 0, 5000, 10000 PPM IN DIET) “inactive; negative”.

`O=C1c2ccccc2-c2ccc3c4c(ccc1c24)-c1ccccc1C3=O`: the carcinogen call is, setting by setting: (Species: MOUSE, Strain/Sex: B6C3F1/FEMALE, Route: ORAL, Dose: 0, 12500, 25000 PPM IN DIET, Dose: 0, 12500, 25000 PPM IN DIET) “inactive; negative”; (Species: MOUSE, Strain/Sex: B6C3F1/MALE, Route: ORAL, Dose: 0, 25000, 50000 PPM IN DIET, Dose: 0, 25000, 50000 PPM IN DIET, Tumor Site: Type of Lesion: LYMPHATIC SYSTEM: LYMPHOMA, LIVER: HEPATOCELLULAR CARCINOMA) “active; positive”; (Species: RAT, Strain/Sex: F344/FEMALE, Route: ORAL, Dose: 0, 3500, 7000 PPM IN DIET, Dose: 0, 3500, 7000 PPM IN DIET) “inactive; negative”; (Species: RAT, Strain/Sex: F344/MALE, Route: ORAL, Dose: 0, 3500, 7000 PPM IN DIET, Dose: 0, 3500, 7000 PPM IN DIET) “inactive; negative”.
